Laboratory results taken from patent US20210338648A1, “METHODS AND COMPOSITIONS FOR REDUCING SERUM URIC ACID” (AstraZeneca AB, priority 2018, published 2021).
Entries after “also recorded” stand apart in the source; their conditions may differ.

Legend:
[1] = Phase 2 crossover study: urinary excretion of uric acid (uUA); type: in vivo, human
Text: Thirty-six asymptomatic hyperuricemic patients aged 18 to 65 years (inclusive) were enrolled into this study at two study centers. Twenty-four patients were enrolled and completed the study. Due to inadequate urine sampling, 12 additional patients were included to ensure an adequate sample size (at least 20 evaluable patients) to evaluate the effects of intensive UA lowering with verinurad, febuxostat and dapagliflozin on urinary excretion of UA. With 24 completers available during the interim analysis, this will provide for a total sample size of 36 evaluable patients. Before any study specific assessments were performed, potential patients provided informed consent. Each patient underwent the below mentioned visits: • A Screening period of maximum 28 days; • Two treatment periods during which patients were resident in the Clinical Unit from Day −2 to Day 1 and from Day 6 to Day 8; and • A Follow-up Visit within 14 to 28 days after the first administration of Investigational Medicinal Product (IMP) in Treatment Period 2. […] Treatment Period 1 and Treatment Period 2 were separated by a washout period of 7 to 21 days. • 1.

[2] = Phase 2 crossover study: serum uric acid (sUA) after 7 days of treatment; type: in vivo, human; conditions: dapagliflozin added to verinurad + febuxostat; D7
Text: (§1) Thirty-six asymptomatic hyperuricemic patients aged 18 to 65 years (inclusive) were enrolled into this study at two study centers. Twenty-four patients were enrolled and completed the study. Due to inadequate urine sampling, 12 additional patients were included to ensure an adequate sample size (at least 20 evaluable patients) to evaluate the effects of intensive UA lowering with verinurad, febuxostat and dapagliflozin on urinary excretion of UA. With 24 completers available during the interim analysis, this will provide for a total sample size of 36 evaluable patients.
• 1. […] At screening: One sUA assessment. […] Area under plasma concentration time curve over a dosing interval (24 hours) (AUCτ) assessment for verinurad and its main metabolites, febuxostat, and dapagliflozin [Time Frame: On Treatment Period 1 and 2: Day 7 (Pre-dose and 15 minutes, 30 minutes, 1 hour, 1.5, 2, 3, 4, 8, 12 and 24 hours post-dose)] • To assess AUCT after administration of single oral fixed dose of verinurad+febuxostat+dapagliflozin/placebo • 3. […]

[3] = Phase 2 crossover study: safety and tolerability (adverse events, serum creatinine, serum sodium); type: in vivo, human; conditions: Grp1 vs Grp2
Text: as §1, with “patients. […] At screening: One sUA assessment. […] On Treatment Period 1 and 2: […] On Treatment Period 1 and 2: […] Systolic blood pressure [SBP] […] Diastolic blood pressure [DBP]” for “patients.”

[4] = co-administration, Day 7
Experimental: This study was a randomized, placebo controlled, double-blind, 2-way crossover study conducted on asymptomatic hyperuricemic patients.
On Day −2 of Treatment period 1, patients were randomized (1:1) to 1 of 2 treatment sequences (AB or BA). […] On Day 1, after all dosing and all assessments were performed, patients received instruction to administer the IMP at home once daily in the morning from Day 2 to Day 6 and the IMP dispensed for home dosing. Patients returned to the Clinical Unit on Day 6 and were residential in the Clinical Unit from Day 6 to Day 8.

total 24 h uUA excretion (result in words) ([1]; dapagliflozin added to verinurad + febuxostat vs placebo, 24 h urine, all subjects): no difference
effect on febuxostat pharmacokinetics [4]: did not affect
effect on verinurad pharmacokinetics [4]: did not affect
Structure (SMILES): CCOc1ccc(Cc2cc([C@@H]3O[C@H](CO)[C@@H](O)[C@H](O)[C@H]3O)ccc2Cl)cc1 [dapagliflozin]
peak uUA excretion (result in words) ([1]; dapagliflozin 10 mg/day added to verinurad 9 mg/day + febuxostat 80 mg/day, D7): no increase; also recorded: without an increase in uUA excretion
sUA levels (result in words) [2]: significantly reduced; also recorded: additional sUA lowering
serum creatinine (sCr), between-group difference [3]: without an increase in uUA excretion, or changes in sCr
